Reference: PubChem BioAssay AID1963848 (Molecular Pharmacology Branch, DTP, NCI, 2024)

Tested on: 379773-124-R-J2-PDC spheroid viability
Experiment: Anticancer human tumor 379773-124-R-J2-PDC patient-derived endometrial carcinoma cell line growth inhibition [POLQ]
Details: spheroids with HUVEC and MSC; for IC50: curve of first compound; for viability, T/C: stronger effect = lower value
Summary of the method: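 Growth inhibition in 3D: complex spheroids (tumor PDC, HUVEC, MSC) treated with POLQ inhibitor combinations; where Cmax unknown, highest tested concentration 10 microM, except SN-38 at 1 microM.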

[1] = second compound 0.0316 µM, first compound 0.0316 µM
[2] = second compound 0.0316 µM, first compound 0.1 µM
[3] = second compound 0.0316 µM, first compound 0.316 µM
[4] = second compound 0.0316 µM, first compound 1 µM
[5] = second compound 0.0316 µM, first compound 3.16 µM
[6] = second compound 0.0316 µM, first compound 10 µM
[7] = second compound 0.1 µM, first compound 0.0316 µM
[8] = second compound 0.1 µM, first compound 0.1 µM
[9] = second compound 0.1 µM, first compound 0.316 µM
[10] = second compound 0.1 µM, first compound 1 µM
[11] = second compound 0.1 µM, first compound 3.16 µM
[12] = second compound 0.1 µM, first compound 10 µM
[13] = second compound 0.316 µM, first compound 0.0316 µM
[14] = second compound 0.316 µM, first compound 0.1 µM
[15] = second compound 0.316 µM, first compound 0.316 µM
[16] = second compound 0.316 µM, first compound 1 µM
[17] = second compound 0.316 µM, first compound 3.16 µM
[18] = second compound 0.316 µM, first compound 10 µM
[19] = second compound 1 µM, first compound 0.0316 µM
[20] = second compound 1 µM, first compound 0.1 µM
[21] = second compound 1 µM, first compound 0.316 µM
[22] = second compound 1 µM, first compound 1 µM
[23] = second compound 1 µM, first compound 3.16 µM
[24] = second compound 1 µM, first compound 10 µM
[25] = second compound 3.16 µM, first compound 0.0316 µM
[26] = second compound 3.16 µM, first compound 0.1 µM
[27] = second compound 3.16 µM, first compound 0.316 µM
[28] = second compound 3.16 µM, first compound 1 µM
[29] = second compound 3.16 µM, first compound 3.16 µM
[30] = second compound 3.16 µM, first compound 10 µM
[31] = second compound 10 µM, first compound 0.0316 µM
[32] = second compound 10 µM, first compound 0.1 µM
[33] = second compound 10 µM, first compound 0.316 µM
[34] = second compound 10 µM, first compound 1 µM
[35] = second compound 10 µM, first compound 3.16 µM
[36] = second compound 10 µM, first compound 10 µM
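Also: spheroids exposed to drugs for seven days before readout.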
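For viability, T/C in this document: percent viability relative to DMSO vehicle control taken as 100%.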

SMILES: CNCc1ccc(-c2[nH]c3cc(F)cc4c3c2CCNC4=O)cc1 + Cc1cccc(N(C)C(=O)C2C(O)CCN2c2nc(C)cc(C(F)(F)F)c2C#N)c1
- IC50 (second compound 0.0316 µM): > 10000 nM
- IC50 (second compound 0.1 µM): > 10000 nM
- IC50 (second compound 0.316 µM): > 10000 nM
- IC50 (second compound 1 µM): > 10000 nM
- IC50 (second compound 3.16 µM): > 10000 nM
- IC50 (second compound 10 µM): > 10000 nM
- viability, T/C [1]: 89.5%
- viability, T/C [2]: 74.2%
- viability, T/C [3]: 88.5%
- viability, T/C [4]: 83.2%
- viability, T/C [5]: 72.7%
- viability, T/C [6]: 58.3%
- viability, T/C [7]: 90.4%
- viability, T/C [8]: 85.8%
- viability, T/C [9]: 75.2%
- viability, T/C [10]: 79.5%
- viability, T/C [11]: 80.4%
- viability, T/C [12]: 66.9%
- viability, T/C [13]: 93.3%
- viability, T/C [14]: 77.5%
- viability, T/C [15]: 83.1%
- viability, T/C [16]: 82.9%
- viability, T/C [17]: 75.8%
- viability, T/C [18]: 57.6%
- viability, T/C [19]: 78.2%
- viability, T/C [20]: 79.7%
- viability, T/C [21]: 87.1%
- viability, T/C [22]: 73.5%
- viability, T/C [23]: 73.8%
- viability, T/C [24]: 60.3%
- viability, T/C [25]: 86.5%
- viability, T/C [26]: 73.6%
- viability, T/C [27]: 79.8%
- viability, T/C [28]: 83.1%
- viability, T/C [29]: 82%
- viability, T/C [30]: 54.8%
- viability, T/C [31]: 74.8%
- viability, T/C [32]: 70.3%
- viability, T/C [33]: 72.7%
- viability, T/C [34]: 69.6%
- viability, T/C [35]: 77.3%
- viability, T/C [36]: 61.1%

SMILES: CC1COCCN1c1cc(C2(O)CC3CCC(C2)O3)c2cnn(-c3ccn[nH]3)c2n1 (stereo not drawn) + Nc1ccc(C#CCN(C(=O)Cc2ncc(C(F)(F)F)cc2C(F)(F)F)c2ccc(F)cc2)nn1
- IC50 (second compound 0.0316 µM): 128 nM
- IC50 (second compound 0.1 µM): 104 nM
- IC50 (second compound 0.316 µM): 121 nM
- IC50 (second compound 1 µM): 107 nM
- IC50 (second compound 3.16 µM): 126 nM
- IC50 (second compound 10 µM): 114 nM
- viability, T/C [1]: 110%
- viability, T/C [2]: 59.9%
- viability, T/C [3]: 13.5%
- viability, T/C [4]: 12.8%
- viability, T/C [5]: 11.2%
- viability, T/C [6]: 4.19%
- viability, T/C [7]: 92%
- viability, T/C [8]: 51.4%
- viability, T/C [9]: 16%
- viability, T/C [10]: 14%
- viability, T/C [11]: 10.2%
- viability, T/C [12]: 3.29%
- viability, T/C [13]: 83.2%
- viability, T/C [14]: 56.6%
- viability, T/C [15]: 16.1%
- viability, T/C [16]: 11.8%
- viability, T/C [17]: 10.4%
- viability, T/C [18]: 4.27%
- viability, T/C [19]: 86.9%
- viability, T/C [20]: 52.5%
- viability, T/C [21]: 16.4%
- viability, T/C [22]: 13.6%
- viability, T/C [23]: 8.92%
- viability, T/C [24]: 3.67%
- viability, T/C [25]: 83%
- viability, T/C [26]: 59.3%
- viability, T/C [27]: 12.5%
- viability, T/C [28]: 11.8%
- viability, T/C [29]: 9.65%
- viability, T/C [30]: 3.56%
- viability, T/C [31]: 82.8%
- viability, T/C [32]: 54.5%
- viability, T/C [33]: 18.5%
- viability, T/C [34]: 14.6%
- viability, T/C [35]: 9.99%
- viability, T/C [36]: 3.04%

SMILES: O=C(c1cc(Cc2n[nH]c(=O)c3ccccc23)ccc1F)N1CCN(C(=O)C2CC2)CC1 + Cc1cccc(N(C)C(=O)C2C(O)CCN2c2nc(C)cc(C(F)(F)F)c2C#N)c1
- IC50 (second compound 0.0316 µM): 6370 nM
- IC50 (second compound 0.1 µM): 7600 nM
- IC50 (second compound 0.316 µM): 8220 nM
- IC50 (second compound 1 µM): 8160 nM
- IC50 (second compound 3.16 µM): 6720 nM
- IC50 (second compound 10 µM): 6140 nM
- viability, T/C [1]: 79.5%
- viability, T/C [2]: 89.5%
- viability, T/C [3]: 83.8%
- viability, T/C [4]: 80.9%
- viability, T/C [5]: 76.8%
- viability, T/C [6]: 32.7%
- viability, T/C [7]: 89.2%
- viability, T/C [8]: 89.6%
- viability, T/C [9]: 75.7%
- viability, T/C [10]: 75.8%
- viability, T/C [11]: 74.1%
- viability, T/C [12]: 42.5%
- viability, T/C [13]: 90.2%
- viability, T/C [14]: 80.2%
- viability, T/C [15]: 82.8%
- viability, T/C [16]: 85.3%
- viability, T/C [17]: 71.7%
- viability, T/C [18]: 45.1%
- viability, T/C [19]: 88.3%
- viability, T/C [20]: 87.9%
- viability, T/C [21]: 77.7%
- viability, T/C [22]: 83.5%
- viability, T/C [23]: 95.4%
- viability, T/C [24]: 42.2%
- viability, T/C [25]: 73.5%
- viability, T/C [26]: 78.4%
- viability, T/C [27]: 81.5%
- viability, T/C [28]: 76.7%
- viability, T/C [29]: 97.2%
- viability, T/C [30]: 33.4%
- viability, T/C [31]: 78.2%
- viability, T/C [32]: 78.9%
- viability, T/C [33]: 85.5%
- viability, T/C [34]: 72.4%
- viability, T/C [35]: 73.4%
- viability, T/C [36]: 33.7%

SMILES: CC1COCCN1c1cc(C2(O)CC3CCC(C2)O3)c2cnn(-c3ccn[nH]3)c2n1 (stereo not drawn) + COC1C(OC(N)=O)C(O)C(Oc2ccc3c(O)c(NC(=O)c4ccc(O)c(CC=C(C)C)c4)c(=O)oc3c2C)OC1(C)C
- IC50 (second compound 0.0316 µM): 66.1 nM
- IC50 (second compound 0.1 µM): 99.4 nM
- IC50 (second compound 0.316 µM): 103 nM
- IC50 (second compound 1 µM): 75.8 nM
- IC50 (second compound 3.16 µM): 86.8 nM
- IC50 (second compound 10 µM): 76.5 nM
- viability, T/C [1]: 74.8%
- viability, T/C [2]: 36.6%
- viability, T/C [3]: 14.5%
- viability, T/C [4]: 10.8%
- viability, T/C [5]: 7.52%
- viability, T/C [6]: 2.19%
- viability, T/C [7]: 82.9%
- viability, T/C [8]: 49.9%
- viability, T/C [9]: 11.2%
- viability, T/C [10]: 8.68%
- viability, T/C [11]: 7.3%
- viability, T/C [12]: 2.55%
- viability, T/C [13]: 90%
- viability, T/C [14]: 51.2%
- viability, T/C [15]: 12.9%
- viability, T/C [16]: 10.9%
- viability, T/C [17]: 6.18%
- viability, T/C [18]: 2.42%
- viability, T/C [19]: 77.8%
- viability, T/C [20]: 41.4%
- viability, T/C [21]: 11.6%
- viability, T/C [22]: 10.2%
- viability, T/C [23]: 6.65%
- viability, T/C [24]: 1.98%
- viability, T/C [25]: 71.9%
- viability, T/C [26]: 47%
- viability, T/C [27]: 11.7%
- viability, T/C [28]: 9.21%
- viability, T/C [29]: 7.19%
- viability, T/C [30]: 2.23%
- viability, T/C [31]: 75.4%
- viability, T/C [32]: 42.4%
- viability, T/C [33]: 10.3%
- viability, T/C [34]: 9.86%
- viability, T/C [35]: 7.38%
- viability, T/C [36]: 2.73%
